From US20240239767A1 (AstraZeneca AB, priority 2022, published 2024)

Experiments:
[1] = biological target: GSK3b (Glycogen synthase kinase-3 beta) (Homo sapiens, UniProt P49841); assay: Assay 6 - GSK3b assay (ThermoFisher, FRET Z-Lyte); type: biochemical; settings: geometric mean; ATP Conc: 10.000 μM; read-out: Assay 6 (GSK3B FRET-Z-Lyte CR) GMean IC50 (μM) ATP Conc: 10.000
Outline: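 Z-Lyte FRET kinase assay: 0.22-0.92 ng GSK3β with 2 μM Ser/Thr 09 peptide in 50 mM HEPES pH 7.5, 10 mM MgCl2, 1 mM EGTA, 0.01% BRIJ-35, 60 min at room temperature, then 60 min development. Compounds in 1% DMSO, 10-point 3-fold dilutions from 10 μM; sigmoidal dose-response fit.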

[2] = biological target: T1, potassium ion channel hERG (human Ether-á-go-go-Related Gene) (Homo sapiens, UniProt Q12809); assay: Assay 5 - hERG assay (SyncroPatch 384PE patch clamp, CHO cells); type: cell-based; settings: geometric mean, CHO cells over-expressing hERG, read-out: Assay 5 (hERG Hu CHO IF EPh CR-Syncro) GMean IC50
T1 construct: expressed in transfected cells; host or cells: Chinese hamster ovary K1 (CHO)
T1 sequence (Q12809 whole entry): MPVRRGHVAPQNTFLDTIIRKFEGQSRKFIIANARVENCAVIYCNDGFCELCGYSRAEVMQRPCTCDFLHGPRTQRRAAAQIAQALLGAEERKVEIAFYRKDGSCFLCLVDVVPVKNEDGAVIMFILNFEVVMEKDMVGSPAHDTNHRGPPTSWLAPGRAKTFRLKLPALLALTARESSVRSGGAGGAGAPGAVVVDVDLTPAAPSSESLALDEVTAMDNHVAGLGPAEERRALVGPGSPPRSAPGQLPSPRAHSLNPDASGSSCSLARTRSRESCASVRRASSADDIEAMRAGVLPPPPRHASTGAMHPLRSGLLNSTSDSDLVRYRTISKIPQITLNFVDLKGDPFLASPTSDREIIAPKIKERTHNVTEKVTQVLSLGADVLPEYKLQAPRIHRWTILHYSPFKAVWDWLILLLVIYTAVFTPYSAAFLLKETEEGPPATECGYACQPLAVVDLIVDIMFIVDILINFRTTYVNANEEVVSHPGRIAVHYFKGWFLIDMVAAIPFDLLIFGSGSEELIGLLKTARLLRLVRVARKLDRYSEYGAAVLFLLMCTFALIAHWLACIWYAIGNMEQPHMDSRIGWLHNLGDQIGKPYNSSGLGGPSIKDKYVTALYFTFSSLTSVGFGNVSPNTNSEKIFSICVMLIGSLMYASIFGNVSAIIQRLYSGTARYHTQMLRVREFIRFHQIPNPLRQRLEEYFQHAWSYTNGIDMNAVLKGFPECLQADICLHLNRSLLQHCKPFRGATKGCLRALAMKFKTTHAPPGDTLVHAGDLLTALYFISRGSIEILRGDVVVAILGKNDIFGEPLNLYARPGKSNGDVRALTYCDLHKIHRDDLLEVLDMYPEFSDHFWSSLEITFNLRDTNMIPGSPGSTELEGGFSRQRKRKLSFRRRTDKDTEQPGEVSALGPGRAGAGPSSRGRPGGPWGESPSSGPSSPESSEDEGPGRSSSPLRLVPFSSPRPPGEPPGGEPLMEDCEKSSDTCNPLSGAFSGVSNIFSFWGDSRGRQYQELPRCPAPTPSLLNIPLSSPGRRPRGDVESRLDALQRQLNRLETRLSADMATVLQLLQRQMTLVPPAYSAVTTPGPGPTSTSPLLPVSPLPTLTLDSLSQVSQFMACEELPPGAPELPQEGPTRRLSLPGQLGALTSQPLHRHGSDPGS
Outline: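 Automated whole-cell patch clamp at room temperature on CHO-K1 cells over-expressing hERG, using K-fluoride/escin internal solution (pH 7.2) and NMDG-containing external solution (pH 7.4). Compounds were tested in a 6-point cumulative format, 0.33% final DMSO. Wells accepted only with seal >30 MegaOhm, Z′>0.4 and current >0.2 nA.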

PCSK9 [3] = biological target: PCSK9 (Homo sapiens, UniProt Q8NBP7); assay: Assay 2 - Biophysical human PCSK9 assay (SPR, Biacore); type: binding; design: biotinylated human PCSK9 (31-692)-Avi-His6; settings: geometric mean; SPR single-cycle kinetics, 30° C.; read-out: Assay 2 (PCSK9 BIAcore DBA CR) GMean Kd
PCSK9 (Homo sapiens, UniProt Q8NBP7), sequence (Q8NBP7 31-692): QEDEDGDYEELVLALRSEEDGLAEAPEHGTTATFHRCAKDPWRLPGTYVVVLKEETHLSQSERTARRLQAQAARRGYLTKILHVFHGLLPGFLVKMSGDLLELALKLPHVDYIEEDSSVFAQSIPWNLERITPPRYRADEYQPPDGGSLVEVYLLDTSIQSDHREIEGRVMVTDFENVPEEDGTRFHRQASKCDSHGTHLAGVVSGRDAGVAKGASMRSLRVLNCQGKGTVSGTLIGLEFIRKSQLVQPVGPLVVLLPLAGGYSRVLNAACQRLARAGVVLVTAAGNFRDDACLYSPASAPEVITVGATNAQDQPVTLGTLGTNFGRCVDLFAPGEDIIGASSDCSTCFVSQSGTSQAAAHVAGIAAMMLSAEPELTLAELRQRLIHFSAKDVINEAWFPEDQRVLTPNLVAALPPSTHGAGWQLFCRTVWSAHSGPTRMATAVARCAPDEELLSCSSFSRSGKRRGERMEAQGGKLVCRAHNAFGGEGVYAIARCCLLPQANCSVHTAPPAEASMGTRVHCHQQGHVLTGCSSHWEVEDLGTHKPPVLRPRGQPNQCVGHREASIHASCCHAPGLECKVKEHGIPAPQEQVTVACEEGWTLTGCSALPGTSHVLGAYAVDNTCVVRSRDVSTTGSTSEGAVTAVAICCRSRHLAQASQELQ
Description: The SPR binding experiments were performed on a Biacore S200 optical biosensor unit at 30° C. A Series S Sensor Chip SA that is designed to bind biotinylated molecules for interaction analysis in Biacore systems was equilibrated at room temperature prior to use. The running buffer for protein tethering and subsequent ligand binding experiments was 10 mM HEPES pH 7.4, 150 mM NaCl, 0.05% (v/v) Tween 20 pH 7.4.
For the surface tethering of PCSK9, biotinylated human PCSK9 (31-692)-Avi-His6 at a concentration of 0.5 mg/mL was used. Prior to the surface tethering, the surface was exposed to a solution of 50 mM NaOH, 500 mM NaCl via 3 consecutive injections of this solution with a contact time of 60 s and a flowrate of 10 μL min- to remove non-conjugated streptavidin. The PCSK9 protein was diluted to a concentration of 20 μg/mL using running buffer and injected with a contact time of 180-300 s and a flowrate of 10 μL min^−1 over a single flow channel (typically flow channel 2 or flow channel 4) with the aim to achieve protein capture levels of >5000 response units (RU). Remaining biotin binding sites were blocked via 2 consecutive injections of a 10 μM D-biotin solution in running buffer with a contact time of 60 s and a flowrate of 10 μL min^−1 over all flow-channels.
The binding experiments were all performed at a flow rate of 30 μL min^−1 and by employing the method of single-cycle kinetics. This approach involves the sequential injection of a compound concentration series without regeneration steps. A contact time between 90-150 s was selected, which was followed by a 40 min dissociation phase to allow for a proper estimation of the dissociation rate constant. Test compounds were delivered in DMSO at a concentration of 10 mM and a digital dispenser HP D300 was used to set up the compound concentration series using 6 concentrations. The tested concentrations have been 30, 100, 300, 1000, 3000 and 10000 nM. Prior to injecting any compound, the surfaces were equilibrated by injecting running buffer over them in three separate pulses. The data collection rate was set to 10 Hz.
The raw sensorgrams of the compound injections were first subjected to reference subtraction (subtracting the signal from flow channel 1 and/or 3 from the signal from channels 2 and/or 4 respectively) and then blank subtraction (subtracting the signal from injecting DMSO controls from the reference subtracted data). The resulting double-referenced sensorgrams were then fitted using a 1:1 binding interaction model using the manufactures software package to extract kinetic- and affinity data.

PCSK9 [4] = biological target: T2, PCSK9 (Homo sapiens, UniProt Q8NBP7, G670E/V474I); assay: biochemical
Target sequence in this assay (Q8NBP7 with tags, fused parts or gaps V474I/G670E): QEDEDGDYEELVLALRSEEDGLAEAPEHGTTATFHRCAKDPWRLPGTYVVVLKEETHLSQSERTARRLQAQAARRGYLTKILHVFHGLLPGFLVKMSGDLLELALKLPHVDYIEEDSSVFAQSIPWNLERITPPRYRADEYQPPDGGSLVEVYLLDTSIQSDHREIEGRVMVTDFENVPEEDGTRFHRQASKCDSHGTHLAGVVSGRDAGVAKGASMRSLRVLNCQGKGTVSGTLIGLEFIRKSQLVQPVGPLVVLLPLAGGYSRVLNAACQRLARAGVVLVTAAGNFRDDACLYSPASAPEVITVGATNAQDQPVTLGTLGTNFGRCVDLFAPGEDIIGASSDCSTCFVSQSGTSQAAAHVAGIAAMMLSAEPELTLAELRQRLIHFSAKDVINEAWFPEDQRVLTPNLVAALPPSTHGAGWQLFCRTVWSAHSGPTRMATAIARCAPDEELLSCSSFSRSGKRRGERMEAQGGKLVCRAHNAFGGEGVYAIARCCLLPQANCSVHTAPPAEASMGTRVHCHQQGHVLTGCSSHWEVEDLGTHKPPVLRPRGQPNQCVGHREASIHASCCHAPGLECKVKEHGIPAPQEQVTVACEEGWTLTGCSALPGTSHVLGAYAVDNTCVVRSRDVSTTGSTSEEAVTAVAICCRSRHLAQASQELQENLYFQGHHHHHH

PCSK9 [5] = biological target: T2, PCSK9; assay: cell-based
Target sequence in this assay (Q8NBP7 31-152): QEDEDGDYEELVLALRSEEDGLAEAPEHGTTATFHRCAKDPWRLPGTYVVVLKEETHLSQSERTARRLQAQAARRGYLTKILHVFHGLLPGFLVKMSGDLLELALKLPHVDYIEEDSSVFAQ
Target sequence in this assay (Q8NBP7 153-692 V474I/G670E): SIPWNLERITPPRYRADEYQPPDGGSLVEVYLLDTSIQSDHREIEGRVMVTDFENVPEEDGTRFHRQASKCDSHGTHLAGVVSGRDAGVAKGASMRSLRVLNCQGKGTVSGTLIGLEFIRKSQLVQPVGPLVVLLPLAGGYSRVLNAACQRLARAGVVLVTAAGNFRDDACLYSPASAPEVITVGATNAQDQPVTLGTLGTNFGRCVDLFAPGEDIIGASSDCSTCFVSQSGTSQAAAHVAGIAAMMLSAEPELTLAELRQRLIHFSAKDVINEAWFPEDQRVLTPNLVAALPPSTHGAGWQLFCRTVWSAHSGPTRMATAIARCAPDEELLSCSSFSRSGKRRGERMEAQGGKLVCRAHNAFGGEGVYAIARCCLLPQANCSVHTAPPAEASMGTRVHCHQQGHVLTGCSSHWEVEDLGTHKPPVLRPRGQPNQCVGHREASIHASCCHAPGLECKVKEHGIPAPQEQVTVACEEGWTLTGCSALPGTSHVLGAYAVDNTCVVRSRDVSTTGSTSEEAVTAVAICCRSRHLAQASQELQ

GSK3b (Glycogen synthase kinase-3 beta), sequence (P49841 whole entry): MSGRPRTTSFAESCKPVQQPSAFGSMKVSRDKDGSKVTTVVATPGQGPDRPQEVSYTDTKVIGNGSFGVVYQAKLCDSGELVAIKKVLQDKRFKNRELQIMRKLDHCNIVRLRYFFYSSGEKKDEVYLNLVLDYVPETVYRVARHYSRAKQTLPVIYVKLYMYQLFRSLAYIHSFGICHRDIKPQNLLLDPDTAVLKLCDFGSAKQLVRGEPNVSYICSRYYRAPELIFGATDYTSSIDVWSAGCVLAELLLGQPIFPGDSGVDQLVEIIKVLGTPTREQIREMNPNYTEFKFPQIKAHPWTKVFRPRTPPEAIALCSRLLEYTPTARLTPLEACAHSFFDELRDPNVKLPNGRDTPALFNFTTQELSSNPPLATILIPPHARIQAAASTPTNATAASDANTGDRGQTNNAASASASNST

| Structure (SMILES) | IC50 [1] [µM] | IC50 [2] [nM] | Kd (PCSK9 [3]) [nM] | IC50 (PCSK9 [4]) [nM] | IC50 (PCSK9 [5]) [nM] |
| --- | --- | --- | --- | --- | --- |
| O=c1ccccn1-c1ccc(N[C@H]2CC[C@H](Nc3nc4ncccc4s3)C2)nc1 [Example 20, 6′-(((1S,3S)-3-(Thiazolo[4,5-b]pyridin-2-ylamino)cyclopentyl)amino)-2H-[1,3′-bipyridin]-2-one] | > 10 | > 40100 | 672 | 603 |  |
| O=c1ccccn1-c1ccc(N[C@H]2CC[C@H](Nc3nc4cccnc4o3)C2)nc1 [Example 11, 6′-(((1S,3S)-3-(Oxazolo[5,4-b]pyridin-2-ylamino)cyclopentyl)amino)-2H-[1,3′-bipyridin]-2-one] | > 10 | > 40000 | 24 | 28 |  |
| O=c1ccccn1-c1ccc(N[C@H]2CC[C@H](Nc3nc4ccccc4[nH]3)C2)nc1 [Example 10, 6′-(((1S,3S)-3-((1H-Benzo[d]imidazol-2-yl)amino)cyclopentyl)amino)-2H-[1,3′-bipyridin]-2-one] | > 10 | 4000 | 1550 | 2470 |  |
| O=c1c(OC(F)(F)F)cccn1-c1ccc(N[C@H]2CC[C@H](Nc3nc4cccnc4[nH]3)C2)nc1 [Example 63, 6′-(((1S,3S)-3-((3H-Imidazo[4,5-b]pyridin-2-yl)amino)cyclopentyl)amino)-3-(trifluoromethoxy)-2H-[1,3′-bipyridin]-2-one] | > 10 | > 40000 |  | 2.1 | 51 |
| COc1cccn(-c2ccc(N[C@H]3CC[C@H](Nc4nc5cccnc5[nH]4)C3)nc2)c1=O [Example 41, 6′-(((1S,3S)-3-((3H-Imidazo[4,5-b]pyridin-2-yl)amino)cyclopentyl)amino)-3-methoxy-2H-[1,3′-bipyridin]-2-one] | 0.066 | > 40000 |  | 3.5 | 186 |
| O=c1ccc(Cl)cn1-c1ccc(N[C@H]2CC[C@H](Nc3nc4cccnc4[nH]3)C2)nc1 [Example 71, 6′-(((1S,3S)-3-((3H-Imidazo[4,5-b]pyridin-2-yl)amino)cyclopentyl)amino)-5-chloro-2H-[1,3′-bipyridin]-2-one] | 2.83 | > 40000 |  | 2.6 | 123 |
| O=c1ccccn1-c1ccc(N[C@H]2CC[C@H](Nc3nc4cc(OC(F)(F)F)cnc4[nH]3)C2)nc1 [Example 51, 6′-(((1S,3S)-3-((6-(Trifluoromethoxy)-3H-imidazo[4,5-b]pyridin-2-yl)amino)cyclopentyl)amino)-2H-[1,3′-bipyridin]-2-one] | 1.52 | 30000 |  | 2.5 | 49 |
| O=c1[nH]c2ccccc2n1-c1ccc(N[C@H]2CC[C@H](Nc3nc4cccnc4[nH]3)C2)nc1 [Example 35, 1-(6-(((1S,3S)-3-((3H-Imidazo[4,5-b]pyridin-2-yl)amino)cyclopentyl)amino)pyridin-3-yl)-1,3-dihydro-2H-benzo[d]imidazol-2-one] | 7.61 | 27400 |  | 0.7 | 108 |
| O=c1ccccn1-c1ccc(N[C@H]2CC[C@H](Nc3nc4cc(Br)cnc4s3)C2)nc1 [Compound 87, 6′-(((1S,3S)-3-((6-Bromothiazolo[5,4-b]pyridin-2-yl)amino)cyclopentyl)amino)-2H-[1,3′-bipyridin]-2-one] | 6.74 | 4310 |  | 1.4 | 410 |
| O=c1ccccn1-c1ccc(N[C@H]2CC[C@H](Nc3nc4ccc(CO)cc4o3)C2)nc1 [Example 4, 6′-(((1S,3S)-3-((6-(Hydroxymethyl)benzo[d]oxazol-2-yl)amino)cyclopentyl)amino)-2H-[1,3′-bipyridin]-2-one] | > 10 | > 40000 | 49 | 32.2 |  |
| O=c1ccccn1-c1ccc(N[C@H]2CC[C@H](Nc3nc4c(Cl)c(Cl)cnc4[nH]3)C2)nc1 [Example 50, 6′-(((1S,3S)-3-((6,7-Dichloro-3H-imidazo[4,5-b]pyridin-2-yl)amino)cyclopentyl)amino)-2H-[1,3′-bipyridin]-2-one] | 0.024 | 32000 |  | 10.5 | 190 |
| O=c1ccccn1-c1ccc(N[C@H]2CC[C@H](Nc3nc4cc(F)cnc4[nH]3)C2)nc1 [Example 48, 6′-(((1S,3S)-3-((6-Fluoro-3H-imidazo[4,5-b]pyridin-2-yl)amino)cyclopentyl)amino)-2H-[1,3′-bipyridin]-2-one] | 0.805 | > 40000 |  | 2.1 | 100 |
| O=c1ccc(Cl)cn1-c1ccc(N[C@H]2CC[C@H](Nc3nc4cccnc4o3)C2)nc1 [Example 13, 5-Chloro-6′-(((1S,3S)-3-(oxazolo[5,4-b]pyridin-2-ylamino)cyclopentyl)amino)-2H-[1,3′-bipyridin]-2-one] | > 10 | 27800 |  | 13.3 | 1600 |
| O=c1ccccn1-c1ccc(N[C@H]2CC[C@H](Nc3nc4cc(Cl)cnc4[nH]3)C2)nc1 [Example 47, 6′-(((1S,3S)-3-((6-Chloro-3H-imidazo[4,5-b]pyridin-2-yl)amino)cyclopentyl)amino)-2H-[1,3′-bipyridin]-2-one] | 0.331 | > 40000 |  | 1.6 | 64 |
| Cn1cccc(-c2cnc(N[C@H]3CC[C@H](Nc4nc5cccnc5[nH]4)C3)nc2)c1=O [Example 39, 3-(2-(((1S,3S)-3-((3H-Imidazo[4,5-b]pyridin-2-yl)amino)cyclopentyl)amino)pyrimidin-5-yl)-1-methylpyridin-2(1H)-one] | > 10 | > 40000 |  | 6.1 | 93 |
| CN1CC(=O)N(c2ccc(N[C@H]3CC[C@H](Nc4nc5cccnc5[nH]4)C3)nc2)C1=O [Example 38, 3-(6-(((1S,3S)-3-((3H-Imidazo[4,5-b]pyridin-2-yl)amino)cyclopentyl)amino)pyridin-3-yl)-1-methylimidazolidine-2,4-dione] | > 10 | > 40000 |  | 5.7 | 158 |
| O=c1ccc(OC(F)F)cn1-c1ccc(N[C@H]2CC[C@H](Nc3nc4cccnc4s3)C2)nc1 [Example 77, 5-(Difluoromethoxy)-6′-(((1S,3S)-3-(thiazolo[5,4-b]pyridin-2-ylamino)cyclopentyl)amino)-2H-[1,3′-bipyridin]-2-one] | 4.72 | 10400 |  | 4.2 | 204 |
| COc1ccc(=O)n(-c2ccc(N[C@H]3CC[C@H](Nc4nc5cccnc5o4)C3)nc2)c1 [Example 14, 5-Methoxy-6′-(((1S,3S)-3-(oxazolo[5,4-b]pyridin-2-ylamino)cyclopentyl)amino)-2H-[1,3′-bipyridin]-2-one] | 0.423 | > 40000 |  | 25.5 | 632 |
| O=c1ccncn1-c1ccc(N[C@H]2CC[C@H](Nc3nc4cccnc4[nH]3)C2)nc1 [Example 29, 3-(6-(((1S,3S)-3-((3H-Imidazo[4,5-b]pyridin-2-yl)amino)cyclopentyl)amino)pyridin-3-yl)pyrimidin-4(3H)-one] | > 10 | > 40000 |  | 5.7 | 68 |
